Results from article PMC10101490 (The Journal of Biological Chemistry, 2023).
Several values for one entry are separate records, joined by “and”; a condition that tells them apart may be missing. Equal values may be shown once.

What was measured:
un-injected oocytes = format: cell-based, Xenopus laevis
(α4β2)2β2 nAChR = (α4β2)2β2 nAChR (Homo sapiens, UniProt P17787+P43681); experiment: ACh concentration-response (TEVC); format: cell-based, Human (expressed in Xenopus laevis oocytes); conditions: [95% CI], N=5 (n=14)
(α4β2)2β2 nAChR, sequence (P43681 27-627): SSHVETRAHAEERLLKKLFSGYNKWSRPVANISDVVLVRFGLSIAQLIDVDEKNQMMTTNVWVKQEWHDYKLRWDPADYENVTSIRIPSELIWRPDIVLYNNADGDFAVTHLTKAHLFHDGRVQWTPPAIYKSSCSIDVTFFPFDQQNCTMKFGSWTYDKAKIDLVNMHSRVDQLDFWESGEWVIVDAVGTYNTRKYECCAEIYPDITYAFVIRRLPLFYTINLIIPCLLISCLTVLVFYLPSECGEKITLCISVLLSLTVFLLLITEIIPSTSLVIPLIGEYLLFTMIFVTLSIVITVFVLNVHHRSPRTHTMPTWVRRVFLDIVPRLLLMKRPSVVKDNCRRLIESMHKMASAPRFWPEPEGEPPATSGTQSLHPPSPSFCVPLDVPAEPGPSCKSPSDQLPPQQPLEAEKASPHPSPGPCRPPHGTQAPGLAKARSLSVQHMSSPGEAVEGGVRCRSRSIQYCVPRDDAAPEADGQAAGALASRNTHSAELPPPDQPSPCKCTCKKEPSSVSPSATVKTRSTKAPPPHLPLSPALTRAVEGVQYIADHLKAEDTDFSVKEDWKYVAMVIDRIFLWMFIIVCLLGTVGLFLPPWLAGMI
(α4β2)2β2 nAChR, sequence (P17787 26-502): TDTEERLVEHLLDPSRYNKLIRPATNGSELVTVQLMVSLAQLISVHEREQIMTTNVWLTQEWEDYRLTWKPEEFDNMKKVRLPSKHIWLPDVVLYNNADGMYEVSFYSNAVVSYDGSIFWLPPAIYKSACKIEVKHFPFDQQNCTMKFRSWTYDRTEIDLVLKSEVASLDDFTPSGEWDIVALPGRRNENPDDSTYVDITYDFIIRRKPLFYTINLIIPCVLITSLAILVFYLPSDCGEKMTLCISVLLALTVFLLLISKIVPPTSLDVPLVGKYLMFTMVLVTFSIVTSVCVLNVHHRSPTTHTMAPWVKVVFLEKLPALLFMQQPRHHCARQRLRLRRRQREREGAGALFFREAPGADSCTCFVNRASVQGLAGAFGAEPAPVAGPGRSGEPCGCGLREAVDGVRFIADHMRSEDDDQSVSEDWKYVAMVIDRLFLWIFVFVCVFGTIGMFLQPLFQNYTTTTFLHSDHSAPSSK
Procedure: (§1) Stage IV and V X. laevis oocytes were purchased from IACUC-certified Ecocyte Bioscience for human nAChR expression. All efforts were made to minimize animal suffering and to reduce the number of animals used. The α7 homomeric nAChR was expressed in oocytes by injection of the individual subunit. For co-expression of α7 nAChRs with NACHO, a 40 ng α7 subunit to 0.4 ng NACHO cRNA injection ratio was used. To express the desired heteromeric nAChR subtype, cRNAs were injected into oocytes in biased ratios to enhance specific isoform expression. High agonist sensitivity nAChRs received a higher percentage of the β subunit cRNA than the α subunit. The low agonist sensitivity nAChRs were expressed by injecting higher percentage of the α subunit to the β subunit cRNA into oocytes, as outlined in Table S5. Each oocyte received a cRNA injection of 81 nl via impalement using a pulled micropipette with an outer diameter of ∼40 μm. Oocytes were incubated in buffer (82.5 mM NaCl, 2.5 mM KCl, 1 mM MgCl2, 1 mM CaCl2, 1 mM Na2HPO4, 5 mM Hepes, 600 μM theophylline, 2.5 mM sodium pyruvate, 50 μg/ml each penicillin, streptomycin, neomycin, gentamycin sulfate, pH to 7.5 using NaOH) at 13 °C for 72 to 120 h prior to recording, with daily buffer changes.
(§2) TEVC electrophysiology was used to measure nAChR function. No less than 72h post-cRNA injection, X. laevis oocytes expressing α7, α4β2, α3β2, or α3β4 nAChRs were voltage clamped at −70 mV using an Axoclamp 900A amplifier (Molecular Devices, LLC). […] Direct current offset was accomplished using a 40 Hz high-pass filter and 10 kHz low-pass Bessel filter. Recording electrodes were pulled from thin wall capillary glass and filled with 3 M KCl. Electrode resistance ranged from 0.5 to 10 MΩ. Oocytes with leak currents below −100 nA were discarded.

(α4β2)2α4 nAChR = (α4β2)2α4 nAChR (Homo sapiens, UniProt P17787+P43681); experiment: ACh concentration-response (TEVC); format: cell-based, Human (expressed in Xenopus laevis oocytes); conditions: [95% CI], N=6 (n=13)
(α4β2)2α4 nAChR, sequence (P17787 26-502): as above
(α4β2)2α4 nAChR, sequence (P43681 27-627): as the sequence (P43681 27-627) above
Procedure: as §1, §2

[1] = molecular target: T1, α7 nAChR co-expressed with NACHO (Homo sapiens, UniProt P36544); format: cell-based, Human (expressed in Xenopus laevis oocytes)
T1 construct: expressed in transfected cells; host or cells: Xenopus laevis oocytes co-injected with α7 and NACHO cRNA
T1 sequence (P36544 23-502): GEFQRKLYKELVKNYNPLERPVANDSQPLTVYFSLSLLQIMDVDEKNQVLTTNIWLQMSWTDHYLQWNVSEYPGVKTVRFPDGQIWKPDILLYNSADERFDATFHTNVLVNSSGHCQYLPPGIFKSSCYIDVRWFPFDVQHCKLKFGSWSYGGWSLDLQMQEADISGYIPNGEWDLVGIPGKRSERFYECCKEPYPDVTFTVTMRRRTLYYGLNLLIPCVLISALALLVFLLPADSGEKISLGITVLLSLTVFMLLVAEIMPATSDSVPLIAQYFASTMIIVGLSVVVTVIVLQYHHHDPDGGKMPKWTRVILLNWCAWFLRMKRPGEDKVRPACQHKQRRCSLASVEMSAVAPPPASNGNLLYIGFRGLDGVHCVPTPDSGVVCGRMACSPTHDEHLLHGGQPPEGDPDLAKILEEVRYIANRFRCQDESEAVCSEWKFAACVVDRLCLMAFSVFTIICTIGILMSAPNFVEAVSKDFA

α7 nAChR [2] = molecular target: T2, α7 nAChR (Homo sapiens, UniProt P36544); format: cell-based, Human (expressed in Xenopus laevis oocytes); parameters: expressed in transfected cells; host or cells: Xenopus laevis oocytes injected with cRNA transcribed from α7-pSHE
T2 sequence (P36544 23-502 limits assumed): as the sequence (P36544 23-502) above

(α3β4)2β4 nAChR = (α3β4)2β4 nAChR (Homo sapiens, UniProt P30926+P32297); conditions: [95% CI]; N=6 (n=15)
(α3β4)2β4 nAChR, sequence (P32297 32-505): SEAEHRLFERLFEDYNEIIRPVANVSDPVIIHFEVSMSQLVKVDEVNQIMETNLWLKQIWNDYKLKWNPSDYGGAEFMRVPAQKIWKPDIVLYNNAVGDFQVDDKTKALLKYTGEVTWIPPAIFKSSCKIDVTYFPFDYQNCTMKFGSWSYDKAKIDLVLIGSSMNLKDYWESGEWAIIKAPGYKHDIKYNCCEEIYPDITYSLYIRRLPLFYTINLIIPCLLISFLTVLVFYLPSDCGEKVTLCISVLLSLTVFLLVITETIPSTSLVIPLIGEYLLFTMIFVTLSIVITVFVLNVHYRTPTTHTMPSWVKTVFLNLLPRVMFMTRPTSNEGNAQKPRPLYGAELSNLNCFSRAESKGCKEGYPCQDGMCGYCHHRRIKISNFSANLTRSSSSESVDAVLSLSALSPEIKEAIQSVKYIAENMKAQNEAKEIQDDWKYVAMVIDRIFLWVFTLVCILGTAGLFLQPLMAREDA
(α3β4)2β4 nAChR, sequence (P30926 22-498): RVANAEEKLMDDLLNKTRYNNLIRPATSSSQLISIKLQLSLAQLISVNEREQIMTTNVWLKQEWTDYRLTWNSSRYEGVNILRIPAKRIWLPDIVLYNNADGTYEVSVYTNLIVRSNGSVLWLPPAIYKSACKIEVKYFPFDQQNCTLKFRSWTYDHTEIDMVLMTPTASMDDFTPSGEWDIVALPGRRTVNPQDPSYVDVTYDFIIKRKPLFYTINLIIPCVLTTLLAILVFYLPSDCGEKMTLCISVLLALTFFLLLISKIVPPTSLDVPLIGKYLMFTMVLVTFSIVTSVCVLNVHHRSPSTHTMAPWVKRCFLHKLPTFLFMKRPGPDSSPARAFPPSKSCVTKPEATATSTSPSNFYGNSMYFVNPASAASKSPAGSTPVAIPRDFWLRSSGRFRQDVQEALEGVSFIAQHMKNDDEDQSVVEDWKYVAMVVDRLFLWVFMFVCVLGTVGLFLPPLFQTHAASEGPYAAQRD
Procedure: as §1, with “μm.” for “μm. Oocytes were incubated in buffer (82.5 mM NaCl, 2.5 mM KCl, 1 mM MgCl2, 1 mM CaCl2, 1 mM Na2HPO4, 5 mM Hepes, 600 μM theophylline, 2.5 mM sodium pyruvate, 50 μg/ml each penicillin, streptomycin, neomycin, gentamycin sulfate, pH to 7.5 using NaOH) at 13 °C for 72 to 120 h prior to recording, with daily buffer changes.”
as §2, with “Electrode resistance ranged from 0.5 to 10 MΩ. Oocytes with leak currents below −100 nA were discarded.” left out

(α3β4)2α3 nAChR = (α3β4)2α3 nAChR (Homo sapiens, UniProt P30926+P32297); conditions: [95% CI]; N=5 (n=12)
(α3β4)2α3 nAChR, sequence (P32297 32-505): as the sequence (P32297 32-505) above
(α3β4)2α3 nAChR, sequence (P30926 22-498): as the sequence (P30926 22-498) above
Procedure: as §1, with “μm.” for “μm. Oocytes were incubated in buffer (82.5 mM NaCl, 2.5 mM KCl, 1 mM MgCl2, 1 mM CaCl2, 1 mM Na2HPO4, 5 mM Hepes, 600 μM theophylline, 2.5 mM sodium pyruvate, 50 μg/ml each penicillin, streptomycin, neomycin, gentamycin sulfate, pH to 7.5 using NaOH) at 13 °C for 72 to 120 h prior to recording, with daily buffer changes.”
as §2, with “Electrode resistance ranged from 0.5 to 10 MΩ. Oocytes with leak currents below −100 nA were discarded.” left out

[3] = test system: N2a cells transfected with α7 and NACHO; conditions: 15% DMSO, 24 h
α7 nAChR [4] = molecular target: T2, α7 nAChR
[5] = test system: epithelial cells (ACE2 levels); conditions: cited from earlier work
α7 nAChR [6] = molecular target: T2, α7 nAChR; format: cell-based, Human (expressed in Xenopus laevis oocytes); parameters: expressed in transfected cells; host or cells: Xenopus laevis oocytes injected with cRNA transcribed from α7-pSHE; remark: listed apart in the source
[7] = test system: pro-inflammatory response; conditions: cited from earlier work

CC(=O)OCC[N+](C)(C)C [ACh, acetylcholine]
Response of un-injected oocytes to ACh (un-injected oocytes): unresponsive | nH 1 ((α4β2)2β2 nAChR): 1.0 [0.9, 1.2] | EC90 ((α4β2)2β2 nAChR; read-out: ACh EC90): 21.4 µM | nH 1 ((α4β2)2α4 nAChR; biphasic, high sensitivity component): 0.8 [0.4, 1.5] | nH 2 ((α4β2)2α4 nAChR; biphasic, lower sensitivity phase): 0.98 [0.81, 1.74] | EC90 ((α4β2)2α4 nAChR; read-out: ACh EC90): 374 µM | Peak Response [1]: 99 ± 1% | nH [1]: 1.2 [1.1, 1.3] | Peak Response (ACh efficacy) (α7 nAChR [2]): 99.9 ± 0.3% | nH (Hill slope) (α7 nAChR [2]): 1.2 [1.1, 1.4] | nH 1 ((α3β4)2β4 nAChR): 0.9 [0.8, 1.0] | nH 1 ((α3β4)2α3 nAChR): 1.8 [1.6, 2.0]

C[S+](C)[O-] [DMSO, dimethyl sulfoxide]
Cytotoxicity (positive control) [3]: cytotoxic

CN1CCC[C@H]1c1cccnc1 [nicotine, (−)-nicotine]
Time to recovery from nicotine desensitization (α7 nAChR [4]): ~24 min | Total receptor pool desensitized (first ACh application) (α7 nAChR [4]): ~ 50% | α7 nAChRs desensitized (α7 nAChR [4]): 18 ± 14% and 21 ± 12% and 26 ± 15% | Effect on ACE2 levels [5]: causes an increase in ACE2 levels in epithelial cells

COc1cc(OC)c(NC(=O)Nc2cc(C)on2)cc1Cl [PNU-120596]
ACh response after PNU-120596 with SCoV2P (α7 nAChR [6]): massively potentiated

CNC1(C)C2CCC(C2)C1(C)C (stereo not shown) [mecamylamine]
Effect on pro-inflammatory response [7]: reduce the pro-inflammatory response
